# Where two headings read alike, the source gives them in different places.
# Key:
# human NPR1 = target: T1, human NPR1 (Homo sapiens, UniProt P16066); test: Cellular cGMP production assay, human NPR1 expressing CHO-K1 cells (CisBio HTRF); assay type: cell-based; details: for AC50: cGMP production, 30 min at 37° C., 12-point dose-response from 30 μM; for Human NPR1 Amax (% of ANP): maximum cGMP production as percentage of the maximum cGMP produced with ANP
# T1 construct: host or cells: CHO-K1
# T1 sequence (P16066 33-1061): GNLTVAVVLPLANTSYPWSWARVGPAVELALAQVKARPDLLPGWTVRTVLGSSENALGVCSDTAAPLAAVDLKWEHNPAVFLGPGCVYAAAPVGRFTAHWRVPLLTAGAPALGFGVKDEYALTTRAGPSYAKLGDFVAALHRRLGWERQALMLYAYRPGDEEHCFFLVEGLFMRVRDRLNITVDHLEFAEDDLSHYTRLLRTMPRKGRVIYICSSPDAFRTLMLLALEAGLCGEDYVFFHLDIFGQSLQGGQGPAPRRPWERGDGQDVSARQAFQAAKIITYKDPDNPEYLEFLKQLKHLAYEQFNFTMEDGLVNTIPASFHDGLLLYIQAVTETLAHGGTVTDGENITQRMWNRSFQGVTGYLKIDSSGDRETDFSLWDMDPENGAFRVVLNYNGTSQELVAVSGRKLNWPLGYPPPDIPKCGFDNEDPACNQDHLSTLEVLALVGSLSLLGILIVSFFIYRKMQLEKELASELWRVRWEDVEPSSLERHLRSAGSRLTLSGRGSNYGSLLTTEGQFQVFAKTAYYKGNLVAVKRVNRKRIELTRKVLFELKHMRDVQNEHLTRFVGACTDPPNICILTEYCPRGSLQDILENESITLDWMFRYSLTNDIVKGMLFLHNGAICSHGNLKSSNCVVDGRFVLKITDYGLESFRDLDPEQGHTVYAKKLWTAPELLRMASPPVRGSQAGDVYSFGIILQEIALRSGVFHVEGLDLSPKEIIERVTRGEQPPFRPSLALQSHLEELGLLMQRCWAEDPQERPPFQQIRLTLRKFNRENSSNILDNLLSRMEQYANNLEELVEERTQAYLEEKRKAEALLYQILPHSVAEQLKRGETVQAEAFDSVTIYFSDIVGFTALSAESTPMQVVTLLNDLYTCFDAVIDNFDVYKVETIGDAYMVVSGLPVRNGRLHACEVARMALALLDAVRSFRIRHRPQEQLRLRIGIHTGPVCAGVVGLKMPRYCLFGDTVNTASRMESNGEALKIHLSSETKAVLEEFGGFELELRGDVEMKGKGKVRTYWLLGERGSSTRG
# Procedure, shortened: (§1)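 Read-out was HTRF (excitation 317 nm, emission 665 nm), with cGMP quantified as Delta F against a calibrator standard curve. Beforehand, cells were exposed for 30 min at 37 °C to compound (30 μM top, twelve 3-fold steps) in IBMX-containing PBS/BSA buffer, then lysed.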
# monkey NPR1 = monkey NPR1 (Macaca fascicularis, UniProt A0A7N9DBT9); test: Cellular cGMP production assay, monkey NPR1 expressing CHO-K1 cells (CisBio HTRF); assay type: cell-based; details: for Monkey NPR1 Amax (% of ANP): maximum cGMP production as percentage of the maximum cGMP produced with ANP
# Sequence of monkey NPR1 (A0A7N9DBT9 entry or part of it): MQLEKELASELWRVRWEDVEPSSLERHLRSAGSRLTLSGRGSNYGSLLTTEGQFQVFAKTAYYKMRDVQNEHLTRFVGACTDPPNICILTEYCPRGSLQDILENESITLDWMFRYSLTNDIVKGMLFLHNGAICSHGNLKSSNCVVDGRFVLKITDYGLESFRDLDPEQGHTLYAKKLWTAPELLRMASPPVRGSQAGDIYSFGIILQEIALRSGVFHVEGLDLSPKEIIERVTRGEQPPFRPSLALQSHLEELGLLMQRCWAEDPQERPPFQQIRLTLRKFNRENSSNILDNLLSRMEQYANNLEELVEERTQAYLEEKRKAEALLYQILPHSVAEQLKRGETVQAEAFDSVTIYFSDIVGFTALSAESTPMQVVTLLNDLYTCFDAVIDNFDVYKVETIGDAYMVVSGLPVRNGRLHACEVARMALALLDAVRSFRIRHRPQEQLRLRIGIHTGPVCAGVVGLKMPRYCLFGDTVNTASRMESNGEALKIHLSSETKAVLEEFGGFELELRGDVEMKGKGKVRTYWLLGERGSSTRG
# Procedure, shortened: as §1
# [1] = cGMP production, monkey NPR1 CHO-K1 cells, 30 min at 37° C., 12-point dose-response from 30 μM, read-out: Monkey NPR1 AC50
Structure (SMILES),AC50 (human NPR1),Human NPR1 Amax (% of ANP) (human NPR1),AC50 (monkey NPR1),Monkey NPR1 Amax (% of ANP) (monkey NPR1; monkey NPR1 CHO-K1 cells),AC50 (monkey NPR1; [1])
"CC[C@H]([C@H]1CC[C@H](C(=O)O)CC1)N(C)c1nc2c(c(N[C@@H](CN3C4CCCC3CC4)c3cnn(C)c3)n1)C[C@](C)(c1ccccc1)CC2 [Compound 34, (1R,4r)-4-((1R)-1-(((6R)-4-(((1R)-2-(8-azabicyclo[3.2.1]octan-8-yl)-1-(1-methyl-1H-pyrazol-4-yl)ethyl)amino)-6-methyl-6-phenyl-5,6,7,8-tetrahydroquinazolin-2-yl)(methyl)amino)propyl)cyclohexane-1-carboxylic acid]",146 nM,95.375 % of ANP,91 nM,100.553 % of ANP,–
"CC[C@H]([C@H]1CC[C@H](C(=O)O)CC1)N(C)c1nc2c(c(N[C@@H](CN3CCC[C@H](COC)C3)c3cnn(C)c3)n1)C[C@H](c1cccc(F)c1)CC2 [Compound 35, (1R,4r)-4-((R)-1-(((R)-6-(3-fluorophenyl)-4-(((R)-2-((S)-3-(methoxymethyl)piperidin-1-yl)-1-(1-methyl-1H-pyrazol-4-yl)ethyl)amino)-5,6,7,8-tetrahydroquinazolin-2-yl)(methyl)amino)propyl)cyclohexane-1-carboxylic acid]",148 nM,92.607 % of ANP,–,104.934 % of ANP,127 nM
"CC[C@H](N(C)c1nc2c(c(N[C@@H](CN3CCC[C@@H](CF)C3)c3cnn(C)c3)n1)C[C@@](C)(c1ccccc1)CC2)C12CC(C(=O)O)(C1)C2 [Compound 36, 3-((S)-1-(((S)-4-(((R)-2-((R)-3-(fluoromethyl)piperidin-1-yl)-1-(1-methyl-1H-pyrazol-4-yl)ethyl)amino)-6-methyl-6-phenyl-5,6,7,8-tetrahydroquinazolin-2-yl)(methyl)amino)propyl)bicyclo[1.1.1]pentane-1-carboxylic acid]",150 nM,101.036 % of ANP,–,101.251 % of ANP,133 nM
"CC[C@@H](Nc1nc2c(c(N[C@@H](CN3CCCCC3)c3ccccc3)n1)C[C@@H](c1cccc(F)c1)CC2)[C@H]1CC[C@H](C(=O)O)CC1 [Compound 37, (1R,4r)-4-((R)-1-(((S)-6-(3-fluorophenyl)-4-(((R)-1-phenyl-2-(piperidin-1-yl)ethyl)amino)-5,6,7,8-tetrahydroquinazolin-2-yl)amino)propyl)cyclohexane-1-carboxylic acid]",150 nM,105.989 % of ANP,–,107.224 % of ANP,158 nM
"CC[C@@H](Nc1nc2c(c(N[C@@H](CN3C4CC5CC(C4)CC3C5)c3cnn(CC)c3)n1)C[C@H](c1ccccc1)CC2)[C@H]1CC[C@H](C(=O)O)CC1 [Compound 38, (1R,4r)-4-((R)-1-(((R)-4-(((R)-2-((1R,3R,5R,7R)-2-azaadamantan-2-yl)-1-(1-ethyl-1H-pyrazol-4-yl)ethyl)amino)-6-phenyl-5,6,7,8-tetrahydroquinazolin-2-yl)amino)propyl)cyclohexane-1-carboxylic acid]",161 nM,101.675 % of ANP,–,101.007 % of ANP,83 nM
"CC[C@H]([C@H]1CC[C@H](CC(=O)O)CC1)N(C)c1nc2c(c(N[C@@H](CN3CCC[C@H](C)C3)c3cnn(C)c3)n1)C[C@H](c1cccc(F)c1)CC2 [Compound 39, 2-((1R,4r)-4-((R)-1-(((R)-6-(3-fluorophenyl)-4-(((R)-1-(1-methyl-1H-pyrazol-4-yl)-2-((S)-3-methylpiperidin-1-yl)ethyl)amino)-5,6,7,8-tetrahydroquinazolin-2-yl)(methyl)amino)propyl)cyclohexyl)acetic acid]",162 nM,100.189 % of ANP,–,97.588 % of ANP,102 nM
"CC[C@H]([C@H]1CC[C@H](C(=O)O)CC1)N(C)c1nc2c(c(N[C@@H](CN3CCC[C@H](C)C3)c3cnn(C)c3)n1)C[C@H](c1ccccc1)CC2 [Compound 40, (1R,4r)-4-((R)-1-(methyl((R)-4-(((R)-1-(1-methyl-1H-pyrazol-4-yl)-2-((S)-3-methylpiperidin-1-yl)ethyl)amino)-6-phenyl-5,6,7,8-tetrahydroquinazolin-2-yl)amino)propyl)cyclohexane-1-carboxylic acid]",166 nM,102.476 % of ANP,–,105.150 % of ANP,127 nM
"CC[C@@H](N(C)c1nc2c(c(N[C@@H](CN3C4CCCC3CCC4)c3cnn(C)c3)n1)C[C@H](c1ccccc1F)CC2)C12CC(C(=O)O)(C1)C2 [Compound 41, 3-((R)-1-(((R)-4-(((R)-2-(9-azabicyclo[3.3.1]nonan-9-yl)-1-(1-methyl-1H-pyrazol-4-yl)ethyl)amino)-6-(2-fluorophenyl)-5,6,7,8-tetrahydroquinazolin-2-yl)(methyl)amino)propyl)bicyclo[1.1.1]pentane-1-carboxylic acid]",168 nM,96.843 % of ANP,144 nM,92.494 % of ANP,–
"CC[C@@H](N(C)c1nc2c(c(N[C@@H](CN3C4CCCC3CC4)c3cnn(CC)c3)n1)C[C@H](c1cccc(F)c1)CC2)C12CC(C(=O)O)(C1)C2 [Compound 42, 3-((1R)-1-(((6R)-4-(((1R)-2-(8-azabicyclo[3.2.1]octan-8-yl)-1-(1-ethyl-1H-pyrazol-4-yl)ethyl)amino)-6-(3-fluorophenyl)-5,6,7,8-tetrahydroquinazolin-2-yl)(methyl)amino)propyl)bicyclo[1.1.1]pentane-1-carboxylic acid]",169 nM,92.080 % of ANP,146 nM,101.138 % of ANP,–
"CC[C@H](N(C)c1nc2c(c(N[C@@H](CN3CCC[C@H](CF)C3)c3cnn(C)c3)n1)C[C@](C)(c1ccccc1)CC2)C12CC(C(=O)O)(C1)C2 [Compound 43, 3-((S)-1-(((R)-4-(((R)-2-((S)-3-(fluoromethyl)piperidin-1-yl)-1-(1-methyl-1H-pyrazol-4-yl)ethyl)amino)-6-methyl-6-phenyl-5,6,7,8-tetrahydroquinazolin-2-yl)(methyl)amino)propyl)bicyclo[1.1.1]pentane-1-carboxylic acid]",170 nM,101.178 % of ANP,–,104.036 % of ANP,158 nM
"CC[C@@H](N(C)c1nc2c(c(N[C@@H](CN3CCC[C@H](C)C3)c3cnn(C)c3)n1)C[C@H](c1ccccc1)CC2)C12CC(C(=O)O)(C1)C2 [Compound 44, 3-((R)-1-(methyl((R)-4-(((R)-1-(1-methyl-1H-pyrazol-4-yl)-2-((S)-3-methylpiperidin-1-yl)ethyl)amino)-6-phenyl-5,6,7,8-tetrahydroquinazolin-2-yl)amino)propyl)bicyclo[1.1.1]pentane-1-carboxylic acid]",173 nM,99.256 % of ANP,–,107.199 % of ANP,102 nM
"CC[C@@H](Nc1nc2c(c(N[C@@H](CN3CCCCC3)c3cnn(CC)c3)n1)C[C@H](c1ccccc1)CC2)[C@H]1CC[C@H](C(=O)O)CC1 [Compound 45, (1R,4r)-4-((R)-1-(((R)-4-(((R)-1-(1-ethyl-1H-pyrazol-4-yl)-2-(piperidin-1-yl)ethyl)amino)-6-phenyl-5,6,7,8-tetrahydroquinazolin-2-yl)amino)propyl)cyclohexane-1-carboxylic acid]",175 nM,98.472 % of ANP,–,99.911 % of ANP,125 nM
CC[C@@H](N(C)c1nc2c(c(N[C@@H](CN3CCC[C@H](C)C3)c3cnn(C)c3C)n1)C[C@H](c1cccc(F)c1)CC2)C12CC(C(=O)O)(C1)C2 [Compound 46],179 nM,93.728 % of ANP,–,101.294 % of ANP,146 nM

# Source: patent US12129246B1, “Hydroquinazoline derivatives for the treatment of a disease or disorder” (Novartis AG, priority 2023, dated 2024)
